Target: T1, Tyrosine-protein phosphatase non-receptor type 22 (Homo sapiens, UniProt Q9Y2R2)
T1 sequence (Q9Y2R2 whole entry): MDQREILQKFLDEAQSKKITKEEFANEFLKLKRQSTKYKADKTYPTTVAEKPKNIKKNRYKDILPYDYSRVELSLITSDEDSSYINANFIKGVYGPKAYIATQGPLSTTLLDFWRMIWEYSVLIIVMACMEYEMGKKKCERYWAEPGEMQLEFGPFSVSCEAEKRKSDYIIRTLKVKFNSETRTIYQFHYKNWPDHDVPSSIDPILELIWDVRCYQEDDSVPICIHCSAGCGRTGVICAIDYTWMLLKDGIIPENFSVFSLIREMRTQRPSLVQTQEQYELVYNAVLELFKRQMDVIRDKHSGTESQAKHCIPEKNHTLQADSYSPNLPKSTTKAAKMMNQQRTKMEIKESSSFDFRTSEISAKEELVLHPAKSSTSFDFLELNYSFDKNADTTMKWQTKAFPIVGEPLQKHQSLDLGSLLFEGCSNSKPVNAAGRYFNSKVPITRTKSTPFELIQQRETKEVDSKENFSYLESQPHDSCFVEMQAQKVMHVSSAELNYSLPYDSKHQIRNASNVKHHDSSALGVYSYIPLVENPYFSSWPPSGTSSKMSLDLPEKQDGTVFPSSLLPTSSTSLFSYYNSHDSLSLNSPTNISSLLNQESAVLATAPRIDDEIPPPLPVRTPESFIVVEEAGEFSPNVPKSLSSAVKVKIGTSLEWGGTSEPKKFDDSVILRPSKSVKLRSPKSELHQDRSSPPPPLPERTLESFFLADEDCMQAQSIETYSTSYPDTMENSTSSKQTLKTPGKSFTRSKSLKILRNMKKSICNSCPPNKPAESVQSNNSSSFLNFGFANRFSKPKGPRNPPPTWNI
Experiment: Inhibition of N-terminal His-tagged LYP catalytic domain (1 to 294 residues) (unknown origin) expressed in Escherichia coli BL21 (DE3) cells using pNPP as substrate by absorbance based plate reader analysis

Row | Compound | IC50 [µM]
1 | O=C(O)c1cc2cc(N(Cc3ccccc3)S(=O)(=O)c3ccc(Cl)cc3)ccc2o1 | > 20
2 | O=C(O)c1cc2cc(N(Cc3ccccc3)S(=O)(=O)c3ccc(-c4ccccc4)cc3)ccc2o1 | > 20
3 | CC(C)CN(c1ccc2oc(C(=O)O)cc2c1)S(=O)(=O)c1ccc(Cl)cc1 | > 20
4 | O=C(O)c1cc2cc(N(Cc3ccc(-c4ccccc4)cc3)S(=O)(=O)c3ccc(Br)cc3)ccc2o1 | 7.87
5 | O=C(O)c1cc2cc(NS(=O)(=O)c3ccc(Cl)cc3)ccc2o1 | > 20
6 | O=C(O)c1cc2cc(N(Cc3ccc(-c4ccc(Cl)cc4)cc3)S(=O)(=O)c3ccc(-c4ccccc4)cc3)ccc2o1 | 4.36
7 | O=C(O)c1cc2cc(N(Cc3ccc(-c4ccccc4)cc3)S(=O)(=O)c3cc(Cl)c(F)cc3F)ccc2o1 | 18.7
8 | CC(C)CN(c1ccc2oc(C(=O)O)cc2c1)S(=O)(=O)c1ccc(-c2ccccc2)cc1 | > 20
9 | O=C(O)c1cc2cc(N(Cc3ccc(-c4ccccc4)cc3)S(=O)(=O)c3ccc(O)c([N+](=O)[O-])c3)ccc2o1 | 18.7
10 | O=C(O)c1cc2cc(N(Cc3ccc(-c4cccc(Cl)c4Cl)cc3)S(=O)(=O)c3ccc(Cl)c([N+](=O)[O-])c3)ccc2o1 | 5.91
11 | O=C(O)c1cc2cc(N(Cc3ccc(-c4ccccc4)cc3)S(=O)(=O)c3ccc(Cl)nc3)ccc2o1 | 7.74
12 | O=C(O)c1cc2cc(N(Cc3ccc(-c4ccco4)cc3)S(=O)(=O)c3ccc(-c4ccccc4)cc3)ccc2o1 | 7.25
13 | O=C(O)c1cc2cc(N(Cc3ccc(-c4ccccc4)cc3)S(=O)(=O)c3ccc(Cl)c([N+](=O)[O-])c3)ccc2o1 | 9.34
14 | O=C(O)c1cc2cc(N(Cc3ccc(-c4ccccc4)cc3)S(=O)(=O)c3cccc(Cl)c3)ccc2o1 | > 20
15 | O=C(O)c1cc2cc(N(Cc3ccc(-c4ccccc4)cc3)S(=O)(=O)c3ccc(Cl)cc3)ccc2o1 | 9.04
16 | O=C(O)c1cc2cc(NS(=O)(=O)c3ccc(-c4ccccc4)cc3)ccc2o1 | > 20
17 | O=C(O)c1cc2cc(N(Cc3ccc(-c4ccc(Cl)cc4)cc3)S(=O)(=O)c3ccc(Cl)c([N+](=O)[O-])c3)ccc2o1 | 6.78
18 | O=C(O)c1cc2cc(N(Cc3ccc(-c4ccccc4)cc3)S(=O)(=O)c3ccccc3Cl)ccc2o1 | 15.1
19 | O=C(O)c1cc2cc(N(Cc3ccc(Oc4ccccc4)cc3)S(=O)(=O)c3ccc(Cl)c([N+](=O)[O-])c3)ccc2o1 | 5.67
20 | O=C(O)c1cc2cc(N(Cc3ccc(-c4ccccc4)cc3)S(=O)(=O)c3ccc(-c4ccccc4)cc3)ccc2o1 | 5.07
21 | O=C(O)c1cc2cc(N(Cc3ccc(Oc4ccccc4)cc3)S(=O)(=O)c3ccc(-c4ccccc4)cc3)ccc2o1 | 10.7
22 | COc1ccc(-c2ccc(CN(c3ccc4oc(C(=O)O)cc4c3)S(=O)(=O)c3ccc(-c4ccccc4)cc3)cc2)cc1 | 5.47
23 | O=C(O)c1cc2cc(N(Cc3ccc(-c4ccccc4)cc3)S(=O)(=O)c3ccc(-c4cccs4)cc3)ccc2o1 | 8.87

The next lines start with the values.

Row | IC50 [µM] | Compound
24 | 5.03 | CCCCCCNc1ccc(S(=O)(=O)N(Cc2ccccc2)c2ccc3oc(C(=O)O)cc3c2)cc1[N+](=O)[O-]
25 | > 20 | CC(C)CN(c1ccc2oc(C(=O)O)cc2c1)S(=O)(=O)c1ccc(Cl)c([N+](=O)[O-])c1
26 | > 20 | CN(c1ccc2oc(C(=O)O)cc2c1)S(=O)(=O)c1ccc(Cl)cc1
27 | > 20 | CN(c1ccc2oc(C(=O)O)cc2c1)S(=O)(=O)c1ccc(Cl)c([N+](=O)[O-])c1
28 | 5.56 | CCCCCCNc1ccc(S(=O)(=O)N(Cc2ccc(-c3ccccc3)cc2)c2ccc3oc(C(=O)O)cc3c2)cc1[N+](=O)[O-]
29 | > 20 | O=C(O)c1cc2cc(NS(=O)(=O)c3ccc(Cl)c([N+](=O)[O-])c3)ccc2o1
30 | > 20 | CN(c1ccc2oc(C(=O)O)cc2c1)S(=O)(=O)c1ccc(-c2ccccc2)cc1
31 | 6.7 | O=C(O)c1cc2cc(N(Cc3cccc(Br)c3)S(=O)(=O)c3ccc(NCCOc4ccccc4)c([N+](=O)[O-])c3)ccc2o1
32 | > 20 | CN(c1ccc2oc(C(=O)O)cc2c1)S(=O)(=O)c1ccc(NCCN2CCOCC2)c([N+](=O)[O-])c1
33 | 10.3 | O=C(O)c1cc2cc(N(Cc3ccccc3)S(=O)(=O)c3ccc(NCCOc4ccccc4)c([N+](=O)[O-])c3)ccc2o1
34 | > 20 | O=C(O)c1cc2cc(N(Cc3ccccc3)S(=O)(=O)c3ccc(Cl)c([N+](=O)[O-])c3)ccc2o1

Reference: ChEMBL document CHEMBL5620412, “Discovery of benzofuran-2-carboxylic acid derivatives as lymphoid tyrosine phosphatase (LYP) inhibitors for cancer immunotherapy” (Eur J Med Chem, 2023)
